According to ChEMBL document CHEMBL3045821, “Microwave-assisted synthesis of 3-indolyl substituted 4H-chromenes catalyzed by DMAP and their antimicrobial activity” (2012):
In brackets after ≈: the same amount, converted by molar mass.

Columns and labels:
Format in all cases: functional
[1] = system: Candida albicans; assay: Antifungal activity against Candida albicans MTCC 227 after 24 to 48 hr by broth microdilution method
[2] = system: Aspergillus fumigatus; assay: Antifungal activity against Aspergillus fumigatus MTCC 3008 after 24 to 48 hr by broth microdilution method
[3] = system: Escherichia coli; assay: Antibacterial activity against Escherichia coli MTCC 443 after 24 to 48 hr by broth microdilution method
[4] = system: Vibrio cholerae; assay: Antibacterial activity against Vibrio cholerae MTCC 3906 after 24 to 48 hr by broth microdilution method
[5] = system: Salmonella typhi; assay: Antibacterial activity against Salmonella enterica subsp. enterica serovar Typhi MTCC 98 after 24 to 48 hr by broth microdilution method
[6] = system: Bacillus subtilis; assay: Antibacterial activity against Bacillus subtilis MTCC 441 after 24 to 48 hr by broth microdilution method
[7] = system: Clostridium tetani; assay: Antibacterial activity against Clostridium tetani MTCC 449 after 24 to 48 hr by broth microdilution method
[8] = system: Streptococcus pneumoniae; assay: Antibacterial activity against Streptococcus pneumoniae MTCC 1936 after 24 to 48 hr by broth microdilution method

Row | Molecule | MIC [1] [µg/mL] | MIC [2] [µg/mL] | MIC [3] [µg/mL] | MIC [4] [µg/mL] | MIC [5] [µg/mL] | MIC [6] [µg/mL] | MIC [7] [µg/mL] | MIC [8] [µg/mL]
1 | N#CC1=C(N)OC2=C(C(=O)CCC2)C1c1c(-c2ccc(F)cc2)[nH]c2ccccc12 (stereo not given) | 500 (≈ 1250 µM) | 1000 (≈ 2500 µM) | 500 (≈ 1250 µM) | 250 (≈ 626 µM) | 500 (≈ 1250 µM) | 200 (≈ 501 µM) | 500 (≈ 1250 µM) | 200 (≈ 501 µM)
2 | CCn1cc(C(=O)O)c(=O)c2cc(F)c(N3CCNCC3)cc21 [NORFLOXACIN] |  |  | 10 (≈ 31.3 µM) | 10 (≈ 31.3 µM) | 10 (≈ 31.3 µM) | 100 (≈ 313 µM) | 50 (≈ 157 µM) | 10 (≈ 31.3 µM)
3 | N#CC1=C(N)OC2=C(C(=O)CCC2)C1c1c(-c2ccc(Cl)cc2)[nH]c2ccccc12 (stereo not given) | > 1000 | 1000 (≈ 2400 µM) | 100 (≈ 240 µM) | 100 (≈ 240 µM) | 125 (≈ 301 µM) | 200 (≈ 481 µM) | 500 (≈ 1200 µM) | 200 (≈ 481 µM)
4 | CC1(C)CC(=O)C2=C(C1)OC(N)=C(C#N)C2c1c(-c2ccc(Br)cc2)[nH]c2ccccc12 (stereo not given) | 1000 (≈ 2050 µM) | 200 (≈ 410 µM) | 200 (≈ 410 µM) | 500 (≈ 1020 µM) | 250 (≈ 512 µM) | 200 (≈ 410 µM) | 500 (≈ 1020 µM) | 125 (≈ 256 µM)
5 | N#CC1=C(N)OC2=C(C(=O)CCC2)C1c1c(-c2ccc([N+](=O)[O-])cc2)[nH]c2ccccc12 (stereo not given) | 200 (≈ 469 µM) | 500 (≈ 1170 µM) | 500 (≈ 1170 µM) | 500 (≈ 1170 µM) | 500 (≈ 1170 µM) | 250 (≈ 586 µM) | 250 (≈ 586 µM) | 250 (≈ 586 µM)
6 | O=C(O)c1cn(C2CC2)c2cc(N3CCNCC3)c(F)cc2c1=O [CIPROFLOXACIN] |  |  | 25 (≈ 75.4 µM) | 25 (≈ 75.4 µM) | 25 (≈ 75.4 µM) |  |  | 50 (≈ 151 µM)
7 | CC1(C)CC(=O)C2=C(C1)OC(N)=C(C#N)C2c1c(-c2ccc(F)cc2)[nH]c2ccccc12 (stereo not given) | 1000 (≈ 2340 µM) | 250 (≈ 585 µM) | 200 (≈ 468 µM) | 500 (≈ 1170 µM) | 250 (≈ 585 µM) | 100 (≈ 234 µM) | 200 (≈ 468 µM) | 200 (≈ 468 µM)
8 | NYSTATIN | 100 | 100 |  |  |  |  |  | 
9 | COC1=CC(=O)C[C@@H](C)[C@]12Oc1c(Cl)c(OC)cc(OC)c1C2=O [GRISEOFULVIN] | 500 (≈ 1420 µM) | 100 (≈ 283 µM) |  |  |  |  |  | 
10 | CS(=O)(=O)c1ccc(-c2[nH]c3ccccc3c2C2C(C#N)=C(N)OC3=C2C(=O)CCC3)cc1 (stereo not given) | 1000 (≈ 2180 µM) | 1000 (≈ 2180 µM) | 100 (≈ 218 µM) | 500 (≈ 1090 µM) | 100 (≈ 218 µM) | 500 (≈ 1090 µM) | 100 (≈ 218 µM) | 500 (≈ 1090 µM)
11 | CC1(C)CC(=O)C2=C(C1)OC(N)=C(C#N)C2c1c(-c2ccc([N+](=O)[O-])cc2)[nH]c2ccccc12 (stereo not given) | 200 (≈ 440 µM) | 250 (≈ 550 µM) | 250 (≈ 550 µM) | 250 (≈ 550 µM) | 500 (≈ 1100 µM) | 500 (≈ 1100 µM) | 200 (≈ 440 µM) | 250 (≈ 550 µM)
